The values that follow come from US10005767B2, “Compositions and methods for inhibition of the JAK pathway” (Rigel Pharmaceuticals, Inc., priority 2009, dated 2018).

A word on the IC50: it is the point on the concentration scale where inhibition reaches its midpoint.

Where a name gives a salt, the structure may show the parent alone.

In the first assay the test system is human primary T-cells, IL-2 stimulated proliferation (JAK-1 and JAK-3 dependent; reported as JAK3 activity). Put plainly: Human primary T-cell proliferation stimulated by IL-2 (Example 3). To be noted: Homo sapiens, T-cell, tested under conditions described in Example 3 (IL-2 stimulated human primary T-cell proliferation); read-out: ability to inhibit JAK3 activity, IC50 range (Table V). The format is cell-based. In outline: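 Peripheral-blood human T-cells pre-activated via TCR/CD28, IL-2-starved overnight, then cultured 72 h at 37 °C with compound in Yssel's medium containing IL-2 (80 U/mL in cell suspension). Proliferation read as viable-cell ATP by CellTiter-Glo luminescence; reduction versus control taken as JAK pathway inhibition.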
On to `Cc1cnc(Nc2ccc(OCCN(C)C)cc2)nc1Nc1ccc2oc(=O)[nH]c2c1` [Compound I-426, 5-{2-[4-(2-Dimethylamino-ethoxy)-phenylamino]-5-methyl-pyrimidin-4-ylamino}-3H-benzooxazol-2-one], for which the IC50 is below 500 nM.

Turning to `CCOc1ccc(Nc2ncc(C)c(Nc3ccc4oc(=O)[nH]c4c3)n2)cc1Cl` [Compound I-194, 5-[2-(3-Chloro-4-ethoxy-phenylamino)-5-methyl-pyrimidin-4-ylamino]-3H-benzooxazol-2-one], the IC50 was below 500 nM.

Consider `Cc1cnc(Nc2cccc(C(F)(F)F)c2C)nc1Nc1ccc2oc(=O)[nH]c2c1` [Compound I-518, 5-[5-Methyl-2-(2-methyl-3-trifluoromethyl-phenylamino)-pyrimidin-4-ylamino]-3H-benzooxazol-2-one], for which the IC50 is below 500 nM.

As for `COc1c(C)cc(Nc2ncc(C)c(Nc3ccc4oc(=O)[nH]c4c3)n2)cc1Cl` [Compound I-265, 5-(2-(3-chloro-4-methoxy-5-methylphenylamino)-5-methylpyrimidin-4-ylamino)benzo[d]oxazol-2(3H)-one], the IC50 was below 500 nM.

Take `Cc1cnc(Nc2cc(OC3CCC3)cc(C(F)(F)F)c2)nc1Nc1ccc2oc(=O)[nH]c2c1` [Compound I-226, 5-(2-(3-cyclobutoxy-5-(trifluoromethyl)phenylamino)-5-methylpyrimidin-4-ylamino)benzo[d]oxazol-2(3H)-one]: the IC50 is 500 to 5000 nM.

Regarding `COc1cc(Nc2ncc(C)c(Nc3ccc4oc(=O)[nH]c4c3)n2)cc(C(C)N2CCC2)c1` (centres unmarked) [Compound I-235, 5-(2-(3-(1-(azetidin-1-yl)ethyl)-5-methoxyphenylamino)-5-methylpyrimidin-4-ylamino)benzo[d]oxazol-2(3H)-one], the IC50 is below 500 nM. The same measure, in the same setting: under `Cc1cnc(Nc2cnc(C3CC4CCC(C3)N4)c(C)c2)nc1Nc1ccc2oc(=O)[nH]c2c1` (centres unmarked) [II-66, 5-(2-(6-(8-aza-bicyclo[3.2.1]octan-3-yl)-5-methylpyridin-3-ylamino)-5-methylpyrimidin-4-ylamino)benzo[d]oxazol-2(3H)-one] stands 500 to 5000 nM. The same measure, in the same setting: under `Cc1cnc(Nc2ccc(N3CCN(C)CC3)nc2)nc1Nc1ccc2oc(=O)[nH]c2c1` [II-13, N4-(benzoxazolin-2-on-5-yl)-N2-[2-(4-methylpiperazin-1-yl)pyridin-5-yl]-5-methylpyrimidine-2,4-diamine] stands below 500 nM; under `Cc1cc(Nc2ncc(C)c(Nc3ccc4oc(=O)[nH]c4c3)n2)ccc1-c1ccncc1` [Compound I-482, 5-(5-methyl-2-(3-methyl-4-(pyridin-4-yl)phenylamino)pyrimidin-4-ylamino)benzo[d]oxazol-2(3H)-one formate salt], below 500 nM; under `Cc1cnc(Nc2cccc(S(N)(=O)=O)c2)nc1Nc1cc(F)c2oc(=O)[nH]c2c1` [Compound I-248, 3-(4-(7-fluoro-2-oxo-2,3-dihydrobenzo[d]oxazol-5-ylamino)-5-methylpyrimidin-2-ylamino)benzenesulfonamide], below 500 nM.

In the case of `COc1ccc(Nc2ncc(C)c(Nc3ccc4oc(=O)[nH]c4c3)n2)cc1C(=O)N(C)C` [Compound I-260, 2-methoxy-N,N-dimethyl-5-(5-methyl-4-(2-oxo-2,3-dihydrobenzo[d]oxazol-5-ylamino)pyrimidin-2-ylamino)benzamide], the IC50 is below 500 nM. On the same count and under the same terms, under `Cc1cnc(Nc2cc(C(C)O)cc(C(F)(F)F)c2)nc1Nc1ccc2oc(=O)[nH]c2c1` (centres unmarked) [Compound I-446, 5-(2-(3-(1-hydroxyethyl)-5-(trifluoromethyl)phenylamino)-5-methylpyrimidin-4-ylamino)benzo[d]oxazol-2(3H)-one] stands below 500 nM; under `Cc1cnc(Nc2ccc(N3CCC(N(C)C)C3)nc2)nc1Nc1ccc2oc(=O)[nH]c2c1` (centres unmarked) [II-80, 5-(2-(6-(3-(dimethylamino)pyrrolidin-1-yl)pyridin-3-ylamino)-5-methylpyrimidin-4-ylamino)benzo[d]oxazol-2(3H)-one], below 500 nM. The same measure, in the same setting: with `Cc1cnc(Nc2ccc(N3CCC[C@H](N(C)C(=O)OC(C)(C)C)C3)nc2)nc1Nc1ccc2oc(=O)[nH]c2c1` [II-87, (S)-tert-butyl methyl(1-(5-(5-methyl-4-(2-oxo-2,3-dihydrobenzo[d]oxazol-5-ylamino)pyrimidin-2-ylamino)pyridin-2-yl)piperidin-3-yl)carbamate] the figure was below 500 nM. Same read-out and setting: under `Cc1cc(Nc2ncc(C)c(Nc3ccc4oc(=O)[nH]c4c3)n2)cnc1C` [II-153, N2-(2,3-dimethylpyridin-5-yl)-5-methyl-N4-(2-oxo-2,3-dihydro-1,3-benzoxazol-5-yl)-2,4-pyrimidinediamine] stands below 500 nM. Take `Cc1cnc(Nc2ccc(N3CCC(C)(C)CC3)nc2)nc1Nc1ccc2oc(=O)[nH]c2c1` [II-60, 5-(2-(6-(4,4-dimethylpiperidin-1-yl)pyridin-3-ylamino)-5-methylpyrimidin-4-ylamino)benzo[d]oxazol-2(3H)-one]: the IC50 is below 500 nM. Still for that read-out and setting: with `Cc1cc(Nc2ncc(C)c(Nc3ccc4oc(=O)[nH]c4c3)n2)ccc1N1CC2(C)CN(C)CC(C)(C1)C2` [Compound I-5, N4-(benzo[d]oxazol-2(3H)-on-5-yl)-N2-(3-methyl-4-(1,5,7-trimethyl-3,7-diazabicyclo[3.3.1]nonan-3-yl)phenyl)-5-methylpyrimidine-2,4-diamine] the figure was 500 to 5000 nM; with `COc1cc(Nc2ncc(C)c(Nc3ccc4oc(=O)[nH]c4c3)n2)ccc1F` [Compound I-183, 5-[2-(4-Fluoro-3-methoxy-phenylamino)-5-methyl-pyrimidin-4-ylamino]-3H-benzooxazol-2-one], below 500 nM; with `Cc1cnc(Nc2ccc(OC(C)C)nc2)nc1Nc1ccc2oc(=O)[nH]c2c1` [II-144, N2-(2-isopropoxypyridin-5-yl)-5-methyl-N4-(2-oxo-2,3-dihydro-1,3-benzoxazol-5-yl)-2,4-pyrimidinediamine], below 500 nM. For `Cc1cnc(Nc2ccc(OC(F)(F)F)cc2)nc1Nc1ccc2oc(=O)[nH]c2c1` [Compound I-108, N4-(benzoxazolin-2-on-5-yl)-N2-(4-trifluoromethoxyphenyl)-5-methylpyrimidine-2,4-diamine trifluoroacetate salt], the IC50 was below 500 nM.

For `Cc1cnc(Nc2ccc3c(c2)C(NC(C)C)CCCC3)nc1Nc1ccc2oc(=O)[nH]c2c1` (centres unmarked) [IV-12, 5-[2-(9-Isopropylamino-6,7,8,9-tetrahydro-5H-benzocyclohepten-2-ylamino)-5-methyl-pyrimidin-4-ylamino]-3H-benzooxazol-2-one], the concentration for half-maximal inhibition (IC50) is below 500 nM. The same measure, in the same setting: under `N#Cc1cccc(Nc2ncc(F)c(Nc3ccc4oc(=O)[nH]c4c3)n2)c1` [Compound I-44, N4-(benzo[d]oxazol-2(3H)-on-5-yl)-N2-(3-cyanophenyl)-5-fluoropyrimidine-2,4-diamine] stands below 500 nM; under `COc1ccc(Nc2ncc(C)c(Nc3ccc4oc(=O)[nH]c4c3)n2)cc1C(=O)N1CCCC1` [Compound I-261, 5-(2-(4-methoxy-3-(pyrrolidine-1-carbonyl)phenylamino)-5-methylpyrimidin-4-ylamino)benzo[d]oxazol-2(3H)-one], below 500 nM.

Staying with this assay, now noted: tested under conditions described in Example 3 (IL-2 stimulated human primary T-cell proliferation); read-out: ability to inhibit JAK3 activity, IC50 range (Table V).
For the compound `CCN1CCN(c2cc(Nc3ncc(C)c(Nc4ccc5oc(=O)[nH]c5c4)n3)ccc2Cl)CC1` [Compound I-283, N2-[4-chloro-3-(4-ethylpiperazino)]phenyl-5-methyl-N4-(2-oxo-2,3-dihydro-1,3-benzoxazol-5-yl)-2,4-pyrimidinediamine], the concentration for half-maximal inhibition (IC50) is below 500 nM. As to `Cc1cnc(Nc2cccc(OC(C)(C)C#N)c2)nc1Nc1ccc2oc(=O)[nH]c2c1` [Compound I-342, N2-[3-(1-cyano-1-methyl)ethoxy]phenyl-5-methyl-N4-(2-oxo-2,3-dihydro-1,3-benzoxazol-5-yl)-2,4-pyrimidinediamine], the IC50 is below 500 nM. For `COCCOc1ccc(Nc2ncc(C)c(Nc3ccc4oc(=O)[nH]c4c3)n2)cn1` [II-145, N2-[2-(2-methoxy)ethoxypyridin-5-yl]-5-methyl-N4-(2-oxo-2,3-dihydro-1,3-benzoxazol-5-yl)-2,4-pyrimidinediamine], the IC50 is below 500 nM. As to `COc1cc(Nc2ncc(C)c(Nc3ccc4oc(=O)[nH]c4c3)n2)cc(C(F)(F)F)c1OC` [Compound I-485, N2-(3,4-dimethoxy-5-trifluoromethyl)phenyl-5-methyl-N4-(2-oxo-2,3-dihydro-1,3-benzoxazol-5-yl)-2,4-pyrimidinediamine], the IC50 is below 500 nM. The same measure, in the same setting: under `Cc1cnc(Nc2ccc(Cl)c(F)c2)nc1Nc1ccc2oc(=O)[nH]c2c1` [Compound I-400, N2-(4-chloro-3-fluoro)phenyl-5-methyl-N4-(2-oxo-2,3-dihydro-1,3-benzoxazol-5-yl)-2,4-pyrimidinediamine] stands below 500 nM; under `COc1cc(Nc2ncc(C)c(Nc3ccc4oc(=O)[nH]c4c3)n2)cc(C(F)(F)F)c1` [Compound I-228, 5-(2-(3-deuteratedmethoxy-5-(trifluoromethyl)phenylamino)-5-methylpyrimidin-4-ylamino)benzo[d]oxazol-2(3H)-one], below 500 nM; under `CNC(=O)COc1cccc(Nc2ncc(C)c(Nc3ccc4oc(=O)[nH]c4c3)n2)c1` [Compound I-306, 5-methyl-N2-(3-methylaminocarbonylmethoxy)phenyl-N4-(2-oxo-2,3-dihydro-1,3-benzoxazol-5-yl)-2,4-pyrimidinediamine], below 500 nM.

For the compound `Cc1cnc(Nc2cc(C)c(Cl)c(C)c2)nc1Nc1ccc2oc(=O)[nH]c2c1` [Compound I-394, N2-(4-chloro-3,5-dimethyl)phenyl-5-methyl-N4-(2-oxo-2,3-dihydro-1,3-benzoxazol-5-yl)-2,4-pyrimidinediamine], the 50% inhibitory concentration (IC50) is below 500 nM. The same measure, in the same setting: with `CS(=O)(=O)Nc1cccc(Nc2ncc(F)c(Nc3ccc4oc(=O)[nH]c4c3)n2)c1` [Compound I-56] the figure was below 500 nM.
